Test results: the supplement of paper PMC10307832

Experiments:
Assay in all cases: relative viability (nuclei count vs DMSO), 5 days (fraction); higher = more cells survive
Bosutinib + Crizotinib = compound: COc1cc(Nc2c(C#N)cnc3cc(OCCCN4CCN(C)CC4)c(OC)cc23)c(Cl)cc1Cl [Bosutinib] + C[C@@H](Oc1cc(-c2cnn(C3CCNCC3)c2)cnc1N)c1c(Cl)ccc(F)c1Cl [Crizotinib] (partner 1 µM)
In short: (§1)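 Medians of duplicate plates are given as relative viability. That measure is the nuclei count in treated wells divided by the count in vehicle wells. Counts were taken on 4× images of lung cancer cell lines in 1536-well plates, 5 days after pin-tool dosing the day after seeding with one drug alone or a fixed anchor-drug dose plus five library-drug doses (not always all listed) in √10 steps.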

Bosutinib + Luminespib = compound: COc1cc(Nc2c(C#N)cnc3cc(OCCCN4CCN(C)CC4)c(OC)cc23)c(Cl)cc1Cl [Bosutinib] + CCNC(=O)c1noc(-c2cc(C(C)C)c(O)cc2O)c1-c1ccc(CN2CCOCC2)cc1 [Luminespib] (partner 0.01 µM)
In short: as §1

Bosutinib + Vorinostat = compound: COc1cc(Nc2c(C#N)cnc3cc(OCCCN4CCN(C)CC4)c(OC)cc23)c(Cl)cc1Cl [Bosutinib] + O=C(CCCCCCC(=O)Nc1ccccc1)NO [Vorinostat] (partner 1 µM)
In short: as §1

Bosutinib = compound: COc1cc(Nc2c(C#N)cnc3cc(OCCCN4CCN(C)CC4)c(OC)cc23)c(Cl)cc1Cl [Bosutinib]
In short: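 Lung cancer cell lines in 1536-well plates were exposed by pinning to five library-drug doses (not always all listed) √10 apart, following an overnight hold at 37 °C. MetaXpress counted Hoechst-stained nuclei from 4× images taken after 5 days without medium change. Viability is the median ratio of treated-well to vehicle-well nuclei across plates. Plates required control CV below 25% and at least one doubling.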

Bosutinib + Linsitinib = compound: COc1cc(Nc2c(C#N)cnc3cc(OCCCN4CCN(C)CC4)c(OC)cc23)c(Cl)cc1Cl [Bosutinib] + C[C@]1(O)C[C@@H](c2nc(-c3ccc4ccc(-c5ccccc5)nc4c3)c3c(N)nccn32)C1 [Linsitinib] (partner 1 µM)
In short: as §1

Cell Line: ChaGo-K-1
- relative viability (Bosutinib + Crizotinib; first compound 0.01 µM): 1.21
- relative viability (Bosutinib + Crizotinib; first compound 0.03162 µM): 1.14
- relative viability (Bosutinib + Crizotinib; first compound 0.1 µM): 1.09
- relative viability (Bosutinib + Crizotinib; first compound 1 µM): 1.17
- relative viability (Bosutinib + Luminespib; first compound 0.01 µM): 0.622
- relative viability (Bosutinib + Luminespib; first compound 0.03162 µM): 0.555
- relative viability (Bosutinib + Luminespib; first compound 0.1 µM): 0.47
- relative viability (Bosutinib + Luminespib; first compound 1 µM): 0.585
- relative viability (Bosutinib + Vorinostat; first compound 0.01 µM): 0.808
- relative viability (Bosutinib + Vorinostat; first compound 0.03162 µM): 0.847
- relative viability (Bosutinib + Vorinostat; first compound 0.1 µM): 0.792
- relative viability (Bosutinib + Vorinostat; first compound 1 µM): 0.789
- relative viability (Bosutinib; 0.01 µM): 0.966
- relative viability (Bosutinib; 0.03162 µM): 0.976
- relative viability (Bosutinib; 0.1 µM): 1.01
- relative viability (Bosutinib; 1 µM): 0.997

Cell Line: EKVX
- relative viability (Bosutinib + Crizotinib; first compound 0.01 µM): 0.895
- relative viability (Bosutinib + Crizotinib; first compound 0.03162 µM): 0.753
- relative viability (Bosutinib + Crizotinib; first compound 0.1 µM): 1.01
- relative viability (Bosutinib + Crizotinib; first compound 1 µM): 0.481
- relative viability (Bosutinib + Linsitinib; first compound 0.01 µM): 0.974
- relative viability (Bosutinib + Linsitinib; first compound 0.03162 µM): 0.982
- relative viability (Bosutinib + Linsitinib; first compound 0.1 µM): 1
- relative viability (Bosutinib + Linsitinib; first compound 1 µM): 0.539
- relative viability (Bosutinib + Luminespib; first compound 0.01 µM): 0.799
- relative viability (Bosutinib + Luminespib; first compound 0.03162 µM): 0.914
- relative viability (Bosutinib + Luminespib; first compound 0.1 µM): 0.834
- relative viability (Bosutinib + Luminespib; first compound 1 µM): 0.633
- relative viability (Bosutinib + Vorinostat; first compound 0.01 µM): 0.645
- relative viability (Bosutinib + Vorinostat; first compound 0.03162 µM): 0.73
- relative viability (Bosutinib + Vorinostat; first compound 0.1 µM): 0.747
- relative viability (Bosutinib + Vorinostat; first compound 1 µM): 0.629
- relative viability (Bosutinib; 0.01 µM): 0.927
- relative viability (Bosutinib; 0.03162 µM): 0.971
- relative viability (Bosutinib; 0.1 µM): 0.952
- relative viability (Bosutinib; 1 µM): 0.85

Cell Line: EMC-BAC-2
- relative viability (Bosutinib + Crizotinib; first compound 0.01 µM): 0.763
- relative viability (Bosutinib + Crizotinib; first compound 0.03162 µM): 0.756
- relative viability (Bosutinib + Crizotinib; first compound 0.1 µM): 0.789
- relative viability (Bosutinib + Crizotinib; first compound 1 µM): 0.759
- relative viability (Bosutinib + Linsitinib; first compound 0.01 µM): 0.852
- relative viability (Bosutinib + Linsitinib; first compound 0.03162 µM): 0.791
- relative viability (Bosutinib + Linsitinib; first compound 0.1 µM): 0.832
- relative viability (Bosutinib + Linsitinib; first compound 1 µM): 0.733
- relative viability (Bosutinib + Luminespib; first compound 0.01 µM): 1.22
- relative viability (Bosutinib + Luminespib; first compound 0.03162 µM): 1.07
- relative viability (Bosutinib + Luminespib; first compound 0.1 µM): 1.17
- relative viability (Bosutinib + Luminespib; first compound 1 µM): 1.04
- relative viability (Bosutinib + Vorinostat; first compound 0.01 µM): 0.427
- relative viability (Bosutinib + Vorinostat; first compound 0.03162 µM): 0.713
- relative viability (Bosutinib + Vorinostat; first compound 0.1 µM): 0.831
- relative viability (Bosutinib + Vorinostat; first compound 1 µM): 0.396
- relative viability (Bosutinib; 0.01 µM): 0.95
- relative viability (Bosutinib; 0.03162 µM): 1.09
- relative viability (Bosutinib; 0.1 µM): 1.09
- relative viability (Bosutinib; 1 µM): 0.928

Cell Line: EPLC-272H
- relative viability (Bosutinib + Crizotinib; first compound 0.01 µM): 0.904
- relative viability (Bosutinib + Crizotinib; first compound 0.03162 µM): 1.17
- relative viability (Bosutinib + Crizotinib; first compound 0.1 µM): 1.05
- relative viability (Bosutinib + Crizotinib; first compound 1 µM): 0.818
- relative viability (Bosutinib + Linsitinib; first compound 0.01 µM): 1.18
- relative viability (Bosutinib + Linsitinib; first compound 0.03162 µM): 1.25
- relative viability (Bosutinib + Linsitinib; first compound 0.1 µM): 1.31
- relative viability (Bosutinib + Linsitinib; first compound 1 µM): 1.14
- relative viability (Bosutinib + Luminespib; first compound 0.01 µM): 0.149
- relative viability (Bosutinib + Luminespib; first compound 0.03162 µM): 0.932
- relative viability (Bosutinib + Luminespib; first compound 0.1 µM): 0.649
- relative viability (Bosutinib + Luminespib; first compound 1 µM): 0.278
- relative viability (Bosutinib + Vorinostat; first compound 0.01 µM): 0.601
- relative viability (Bosutinib + Vorinostat; first compound 0.03162 µM): 0.464
- relative viability (Bosutinib + Vorinostat; first compound 0.1 µM): 0.477
- relative viability (Bosutinib + Vorinostat; first compound 1 µM): 0.321
- relative viability (Bosutinib; 0.01 µM): 0.982
- relative viability (Bosutinib; 0.03162 µM): 1.01
- relative viability (Bosutinib; 0.1 µM): 1.12
- relative viability (Bosutinib; 1 µM): 0.911

Cell Line: H3255
- relative viability (Bosutinib + Crizotinib; first compound 0.01 µM): 0.901
- relative viability (Bosutinib + Crizotinib; first compound 0.03162 µM): 0.855
- relative viability (Bosutinib + Crizotinib; first compound 0.1 µM): 0.853
- relative viability (Bosutinib + Crizotinib; first compound 1 µM): 0.354
- relative viability (Bosutinib + Linsitinib; first compound 0.01 µM): 0.94
- relative viability (Bosutinib + Linsitinib; first compound 0.03162 µM): 0.974
- relative viability (Bosutinib + Linsitinib; first compound 0.1 µM): 0.994
- relative viability (Bosutinib + Linsitinib; first compound 1 µM): 0.45
- relative viability (Bosutinib + Luminespib; first compound 0.01 µM): 1.11
- relative viability (Bosutinib + Luminespib; first compound 0.03162 µM): 0.912
- relative viability (Bosutinib + Luminespib; first compound 0.1 µM): 0.866
- relative viability (Bosutinib + Luminespib; first compound 1 µM): 0.784
- relative viability (Bosutinib + Vorinostat; first compound 0.03162 µM): 0.832
- relative viability (Bosutinib + Vorinostat; first compound 0.1 µM): 0.858
- relative viability (Bosutinib + Vorinostat; first compound 1 µM): 0.768
- relative viability (Bosutinib; 0.01 µM): 0.931
- relative viability (Bosutinib; 0.03162 µM): 0.978
- relative viability (Bosutinib; 0.1 µM): 0.995
- relative viability (Bosutinib; 1 µM): 0.594

Cell Line: HARA
- relative viability (Bosutinib + Crizotinib; first compound 0.01 µM): 1.14
- relative viability (Bosutinib + Crizotinib; first compound 0.03162 µM): 0.955
- relative viability (Bosutinib + Crizotinib; first compound 0.1 µM): 0.995
- relative viability (Bosutinib + Crizotinib; first compound 1 µM): 0.642
- relative viability (Bosutinib + Linsitinib; first compound 0.01 µM): 1.01
- relative viability (Bosutinib + Linsitinib; first compound 0.03162 µM): 0.913
- relative viability (Bosutinib + Linsitinib; first compound 0.1 µM): 0.892
- relative viability (Bosutinib + Linsitinib; first compound 1 µM): 0.629
- relative viability (Bosutinib + Luminespib; first compound 0.01 µM): 0.885
- relative viability (Bosutinib + Luminespib; first compound 0.03162 µM): 0.549
- relative viability (Bosutinib + Luminespib; first compound 0.1 µM): 0.682
- relative viability (Bosutinib + Luminespib; first compound 1 µM): 0.741
- relative viability (Bosutinib + Vorinostat; first compound 0.01 µM): 0.544
- relative viability (Bosutinib + Vorinostat; first compound 0.03162 µM): 0.654
- relative viability (Bosutinib + Vorinostat; first compound 0.1 µM): 0.754
- relative viability (Bosutinib + Vorinostat; first compound 1 µM): 0.592
- relative viability (Bosutinib; 0.01 µM): 1.07
- relative viability (Bosutinib; 0.03162 µM): 1.02
- relative viability (Bosutinib; 0.1 µM): 0.993
- relative viability (Bosutinib; 1 µM): 0.791

Cell Line: HCC-15
- relative viability (Bosutinib + Crizotinib; first compound 0.01 µM): 0.809
- relative viability (Bosutinib + Crizotinib; first compound 0.03162 µM): 0.846
- relative viability (Bosutinib + Crizotinib; first compound 0.1 µM): 0.844
- relative viability (Bosutinib + Crizotinib; first compound 1 µM): 0.771
- relative viability (Bosutinib + Linsitinib; first compound 0.01 µM): 0.905
- relative viability (Bosutinib + Linsitinib; first compound 0.03162 µM): 0.837
- relative viability (Bosutinib + Linsitinib; first compound 0.1 µM): 0.954
- relative viability (Bosutinib + Linsitinib; first compound 1 µM): 0.803
- relative viability (Bosutinib + Luminespib; first compound 0.01 µM): 0.39
- relative viability (Bosutinib + Luminespib; first compound 0.03162 µM): 0.346
- relative viability (Bosutinib + Luminespib; first compound 0.1 µM): 0.315
- relative viability (Bosutinib + Luminespib; first compound 1 µM): 0.18
- relative viability (Bosutinib + Vorinostat; first compound 0.01 µM): 0.759
- relative viability (Bosutinib + Vorinostat; first compound 0.03162 µM): 0.893
- relative viability (Bosutinib + Vorinostat; first compound 0.1 µM): 0.893
- relative viability (Bosutinib + Vorinostat; first compound 1 µM): 0.772
- relative viability (Bosutinib; 0.01 µM): 1.05
- relative viability (Bosutinib; 0.03162 µM): 1.03
- relative viability (Bosutinib; 0.1 µM): 1.06
- relative viability (Bosutinib; 1 µM): 0.926

Cell Line: HCC-44
- relative viability (Bosutinib + Crizotinib; first compound 0.01 µM): 0.809
- relative viability (Bosutinib + Crizotinib; first compound 0.03162 µM): 0.782
- relative viability (Bosutinib + Crizotinib; first compound 0.1 µM): 0.764
- relative viability (Bosutinib + Crizotinib; first compound 1 µM): 0.755
- relative viability (Bosutinib + Linsitinib; first compound 0.01 µM): 0.696
- relative viability (Bosutinib + Linsitinib; first compound 0.03162 µM): 0.619
- relative viability (Bosutinib + Linsitinib; first compound 0.1 µM): 0.674
- relative viability (Bosutinib + Linsitinib; first compound 1 µM): 0.559
- relative viability (Bosutinib + Luminespib; first compound 0.01 µM): 1.18
- relative viability (Bosutinib + Luminespib; first compound 0.03162 µM): 1.07
- relative viability (Bosutinib + Luminespib; first compound 0.1 µM): 1.08
- relative viability (Bosutinib + Luminespib; first compound 1 µM): 0.627
- relative viability (Bosutinib + Vorinostat; first compound 0.01 µM): 1.08
- relative viability (Bosutinib + Vorinostat; first compound 0.03162 µM): 1.11
- relative viability (Bosutinib + Vorinostat; first compound 0.1 µM): 1.06
- relative viability (Bosutinib + Vorinostat; first compound 1 µM): 1.16
- relative viability (Bosutinib; 0.01 µM): 0.99
- relative viability (Bosutinib; 0.03162 µM): 1.02
- relative viability (Bosutinib; 0.1 µM): 1.02
- relative viability (Bosutinib; 1 µM): 1.01
